Test systems include A549 NSCLC; HL-60(TB) leukemia; LOX IMVI melanoma; LXFL 529 NSCLC; OVCAR-8 ovarian; DMS 273 small cell lung; SR leukemia; BT-549 breast; HS 578T breast; MCF7 breast.
What all share (assay): NCI-60 cell line screen, 48 h

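Compound exposure: 48 hours, 5 concentrations, 96-well plates. Abbreviation: GI50, concentration required for 50% inhibition of growth. At the TGI there is no net growth.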 A value given as a limit tells only on which side of the number the result lay.

Consider `C1=CCCC=CCC1.C[PH+](C)C.C[PH+](C)C.C[PH+](C)C.[Cl-].[Ir]`, for which the GI50 in the assay on A549 NSCLC is 80.1 µM; in the assay with HL-60(TB) leukemia it was 28.7 µM; in the assay on LOX IMVI melanoma, 31.4 µM; in the assay with LXFL 529 NSCLC, 17.3 µM; with OVCAR-8 ovarian, 35.2 µM. The TGI in the assay on A549 NSCLC was more than 100 µM; in the assay with HL-60(TB) leukemia, 75.3 µM; in the assay on LOX IMVI melanoma it was more than 100 µM; in the assay with LXFL 529 NSCLC it was 62.2 µM; in the assay with OVCAR-8 ovarian it was more than 100 µM.

Take `COc1ccc([C@@H]2OC(=O)C3C2C(=O)O[C@H]3c2ccc(OC)c(OC)c2)cc1OC` (stereo not given in full): the TGI in the assay on A549 NSCLC, with DMS 273 small cell lung, with HL-60(TB) leukemia, in the assay on LOX IMVI melanoma and with OVCAR-8 ovarian was more than 100 µM each time.

Regarding `COc1cc2cnc3c4cc(OCc5ccccc5)ccc4ccc3c2cc1OC`, the TGI with A549 NSCLC was more than 100 µM; in the assay on HL-60(TB) leukemia, 9.27 µM; in the assay with LOX IMVI melanoma, more than 100 µM; in the assay with LXFL 529 NSCLC, more than 100 µM; with OVCAR-8 ovarian, more than 100 µM; in the assay with SR leukemia, 27.1 µM.

For the molecule `COC(=O)C1CCc2nnc(-c3ccccc3)n21` (stereo not given), the TGI in the assay with A549 NSCLC, in the assay with HL-60(TB) leukemia, in the assay with LOX IMVI melanoma, with LXFL 529 NSCLC and in the assay with OVCAR-8 ovarian was more than 100 µM in each case.

For the molecule `CNC(=O)c1cncc(/C=C/c2ccccc2Cl)c1`, the GI50 is more than 25 µM in the assay on A549 NSCLC; more than 25 µM in the assay on BT-549 breast; more than 25 µM in the assay with HL-60(TB) leukemia; 24.5 µM with HS 578T breast; more than 25 µM in the assay on LOX IMVI melanoma; more than 25 µM in the assay on MCF7 breast. Besides, the GI50 in the assay on OVCAR-8 ovarian is more than 25 µM; with SR leukemia, more than 22.9 µM. Moreover, the TGI in the assay on A549 NSCLC, in the assay on BT-549 breast, in the assay with HL-60(TB) leukemia, in the assay on HS 578T breast, in the assay with LOX IMVI melanoma and with MCF7 breast was more than 25 µM each time. The TGI in the assay on OVCAR-8 ovarian and in the assay with SR leukemia was more than 25 µM each time.

Regarding `C=C1CCC2C3(C)COC(c4ccccc4Cl)OC3CCC2(C)C1/C=C/C1=CCOC1=O` (stereo not given), the GI50 was 4.97 µM in the assay on A549 NSCLC; 3.55 µM in the assay with BT-549 breast; 4.97 µM in the assay with HL-60(TB) leukemia; more than 100 µM in the assay with HS 578T breast; 6.77 µM in the assay on LOX IMVI melanoma; 4.38 µM in the assay on MCF7 breast. In addition, the figures for the GI50 in the assay on OVCAR-8 ovarian and with SR leukemia were 13.8 µM and 3.97 µM, respectively. Further, the TGI is more than 100 µM in the assay with A549 NSCLC; 72.9 µM in the assay on BT-549 breast; more than 100 µM in the assay with HL-60(TB) leukemia; more than 100 µM in the assay with HS 578T breast; more than 100 µM in the assay with LOX IMVI melanoma; more than 100 µM with MCF7 breast. For the same molecule, the TGI in the assay with OVCAR-8 ovarian and in the assay on SR leukemia was more than 100 µM in each case.

Regarding `COc1cc2nccc(Oc3ccc(NC(=O)c4cn(C(C)C)c(=O)n(-c5ccc(F)cc5)c4=O)cc3F)c2cc1OC`, the GI50 in the assay with A549 NSCLC was more than 26 µM; with BT-549 breast, 3.29 µM; in the assay with HL-60(TB) leukemia, more than 100 µM; in the assay on HS 578T breast it was 2.64 µM; in the assay on LOX IMVI melanoma it was more than 100 µM; with MCF7 breast, more than 100 µM. Also, the GI50 with OVCAR-8 ovarian is more than 48.4 µM; in the assay with SR leukemia, more than 100 µM. Moreover, the TGI with A549 NSCLC is more than 100 µM; with BT-549 breast it was 11.3 µM; with HL-60(TB) leukemia it was more than 100 µM; with HS 578T breast it was 89.2 µM; in the assay on LOX IMVI melanoma it was more than 100 µM; in the assay on MCF7 breast, more than 100 µM. For the same molecule, the TGI in the assay on OVCAR-8 ovarian and in the assay with SR leukemia was more than 100 µM throughout.

With `CC(C)(C)OC(=O)N[C@@H](Cc1ccccc1)C(=O)N(Cc1ccccc1)C1(C(=O)NCc2ccccc2)CCN(Cc2ccccc2)CC1`, the GI50 was 3.85 µM with A549 NSCLC; 2.11 µM in the assay on BT-549 breast; 2.5 µM with HL-60(TB) leukemia; 4.22 µM in the assay on HS 578T breast; 3.65 µM with LOX IMVI melanoma; 2.82 µM in the assay on MCF7 breast. The GI50 in the assay with OVCAR-8 ovarian is 3.51 µM; in the assay on SR leukemia, 2.33 µM. Besides, the TGI in the assay with A549 NSCLC is more than 100 µM; with BT-549 breast, 8 µM; with HL-60(TB) leukemia it was 6.1 µM; in the assay with HS 578T breast, more than 100 µM; with LOX IMVI melanoma, 21.2 µM; with MCF7 breast it was 19.3 µM. The values for the TGI with OVCAR-8 ovarian and in the assay with SR leukemia were more than 100 µM and 7.51 µM, respectively.

In the case of `O=P(O)(O)OCC1OC(n2cnc3c(NCc4ccccc4)ncnc32)C(O)C1O` (stereo not given), the GI50 was 7.21 µM in the assay on A549 NSCLC; 0.473 µM in the assay with BT-549 breast; 0.346 µM with HL-60(TB) leukemia; 1.02 µM in the assay on HS 578T breast; 0.334 µM with LOX IMVI melanoma; 1.31 µM with MCF7 breast. For the same molecule, the GI50 in the assay with OVCAR-8 ovarian was 0.587 µM; in the assay on SR leukemia, 3.34 µM. Also, the TGI with A549 NSCLC is more than 88.4 µM; with BT-549 breast, 2.49 µM; in the assay on HL-60(TB) leukemia, more than 100 µM; in the assay with HS 578T breast, 6.1 µM; in the assay with LOX IMVI melanoma, 1.47 µM; in the assay on MCF7 breast it was 19.3 µM. Moreover, the values for the TGI in the assay with OVCAR-8 ovarian and in the assay with SR leukemia were 6.92 µM and more than 64.2 µM, respectively.

On to `C/C=C(\C)C(=O)OC1/C=C(\C)CC/C=C(\C)CC2OC(=O)C(C)(OC(C)=O)C12` (stereo not given), for which the TGI in the assay on A549 NSCLC, in the assay on BT-549 breast, in the assay on HL-60(TB) leukemia, in the assay with HS 578T breast, in the assay with LOX IMVI melanoma and in the assay on MCF7 breast was more than 100 µM each time. The TGI in the assay on OVCAR-8 ovarian and with SR leukemia was more than 100 µM throughout.

`CC/C(=C/c1ccc(OC)cc1OC)[N+](=O)[O-]`: the GI50 was 8.37 µM with A549 NSCLC; 4.15 µM in the assay on BT-549 breast; 2.6 µM in the assay on HL-60(TB) leukemia; 7.76 µM in the assay with HS 578T breast; 1.31 µM in the assay with LOX IMVI melanoma; 0.852 µM with MCF7 breast. Besides, the GI50 is 3.5 µM in the assay with OVCAR-8 ovarian and 2.61 µM in the assay with SR leukemia. Also, the TGI with A549 NSCLC stood at 23.4 µM; with BT-549 breast, 15.3 µM; in the assay with HL-60(TB) leukemia it was 7.93 µM; with HS 578T breast, 63.4 µM; with LOX IMVI melanoma it was 2.9 µM; in the assay with MCF7 breast, 3.92 µM. Moreover, the TGI worked out at 11.6 µM with OVCAR-8 ovarian and 17 µM in the assay with SR leukemia.

The values above are taken from PubChem BioAssay (NCI).
